{"source": "patent US4260774A", "about": "“5-Carbamoyl imidazoles” (Sumitomo Chemical Company, Limited, priority 1976, dated 1981)", "key": {"[1]": {"conditions": "in words; literature; cited from earlier work"}, "[2]": {"tested_on": "L5178Y cells", "conditions": "in words; literature; suggested due to metabolic conversion to bredinin; cited from earlier work"}, "[3]": {"tested_on": "Sarcoma 180", "test": "Antitumor effect on mouse experimental tumor Sarcoma 180 (solid)", "format": "in vivo, mouse (ICR-JCL male mice)", "conditions": "Sarcoma-180, ip, 240 h; for inhibition in vivo at 100 mg/kg: 100 mg/kg i.p.", "description": "ICR-JCL male mice, 5 weeks old, weighing between 23 and 26 grams were used. Each test group was composed of 5 mice. One million cells of Sarcoma 180 were injected intramusculary in hind leg. The drug was administered intrapenitoneally at day 1, 3, 5, 7 and 9. After killing the mice at day 10, tumors were removed and weighed. The tumor inhibitory ratio was calculated according to the following formula. [formula]"}, "[4]": {"tested_on": "plaque forming cell (PFC)", "test": "Immunosuppressive activity: plaque forming cell (PFC) number by Cunningham method in mice injected with sheep red blood cells", "format": "in vivo", "conditions": "days 0 to 3, measured day 4", "description": "The immunosuppressive activities of the compounds of the present invention, Azathioprine and 6-mercaptopurine are given in the following table. After a sheep red blood cell preparation (SRBC) was injected in mice, the compounds were administered orally once a day on days 0 to 3. The plaque forming cell (PFC) number was measured on day 4 by Cunningham method. [Cunningham A. J. et al. Immunol. 14, 599 (1968)]"}, "[5]": {"tested_on": "mouse leukemia P388", "test": "Antitumor effect on mouse experimental tumor P388 leukemia", "format": "in vivo, CDF1 mouse", "conditions": "day 1 & 5", "text": "The antitumor activities of the compounds of the present invention were estimated according to the methods described in \"Oyo-Yakuri,\" Vol. 14, P. 521 (in Japanese).\nanimals: CDF1 mouse (6 mice/group)\ntumor: mouse leukemia P388\ninoculum size: 10^6 cells/mouse\nday of administration: day 1 & 5\nadministration route: i.p.\nevaluation: median survival time"}, "[6]": {"tested_on": "lymphatic leukemia L1210", "conditions": "in words; literature; cited from earlier work"}, "[7]": {"conditions": "day 1, 3, 5, 7 and 9, tumor weight day 10, read-out: Inhibition Ratio (%) Sarcoma 180 (solid)"}, "[8]": {"conditions": "read-out: Inhibition Ratio (%) Sarcoma 180 (solid)"}}}
{"smiles": "NC(=O)c1nc[nH]c1O", "note": "[4-carbamoylimidazolium-5-olate]", "values": [{"measurement": "immunosuppressive activity / effects", "setting": "[1]", "value": "immunosuppressive effects"}, {"measurement": "growth inhibitory effects on L5178Y cells", "setting": "[2]", "value": "growth inhibitory effects"}]}
{"smiles": "N#Cc1cccc(C(=O)Oc2nc[nH]c2C(N)=O)c1", "note": "[5-Carbamoyl-1H-imidazol-4-yl m-cyanobenzoate]", "values": [{"measurement": "inhibition in vivo at 100 mg/kg", "setting": "[3]; [7]", "value": 38.3, "unit": "%"}]}
{"smiles": "NC(=O)c1[nH]cnc1OC(=O)c1ccc(F)cc1", "note": "[5-Carbamoyl-1H-imidazol-4-yl p-fluorobenzoate]", "values": [{"measurement": "inhibition in vivo at 100 mg/kg", "setting": "[3]; [7]", "value": 36, "unit": "%"}]}
{"smiles": "Cc1ccc(C(=O)Oc2nc[nH]c2C(N)=O)cc1", "note": "[5-Carbamoyl-1H-imidazol-4-yl p-methylbenzoate]", "values": [{"measurement": "inhibition in vivo at 100 mg/kg", "setting": "[3]; [7]", "value": 38.3, "unit": "%"}]}
{"smiles": "NC(=O)c1[nH]cnc1OC(=O)c1ccc([N+](=O)[O-])cc1", "note": "[5-Carbamoyl-1H-imidazol-4-yl p-nitrobenzoate]", "values": [{"measurement": "inhibition in vivo at 100 mg/kg", "setting": "[3]; [7]", "value": 44.7, "unit": "%"}]}
{"smiles": "NC(=O)c1[nH]cnc1OC(=O)c1ccccc1", "note": "[5-Carbamoyl-1H-imidazole-4-yl benzoate, 5-carbamoyl-1H-imidazol-4-yl benzoate]", "values": [{"measurement": "Effects PFC/spleen × 10^-4", "setting": "[4]; 25 mg/kg/day p.o.", "value": "19.88 ± 6.06", "unit": "PFC/spleen × 10^-4"}, {"measurement": "Suppression (%)", "setting": "[4]; 25 mg/kg/day p.o.", "value": 68.1, "unit": "%"}, {"measurement": "Effects PFC/spleen × 10^-4", "setting": "[4]; 100 mg/kg/day p.o.", "value": "8.63 ± 2.61", "unit": "PFC/spleen × 10^-4"}, {"measurement": "Suppression (%)", "setting": "[4]; 100 mg/kg/day p.o.", "value": 89.4, "unit": "%"}]}
{"smiles": "O=c1[nH]cc(F)c(=O)[nH]1", "note": "[5-Fluorouracil, reference compound]", "values": [{"measurement": "inhibition in vivo at 30 mg/kg", "setting": "[3]; [8]", "value": 66, "unit": "%"}]}
{"smiles": "NC(=O)c1[nH]cnc1OC(=O)C12CC3CC(CC(C3)C1)C2", "note": "[5-carbamoyl-1H-imidazol-4-yl 1-adamantanecarboxylate]", "values": [{"measurement": "Effects PFC/spleen × 10^-4", "setting": "[4]; 25 mg/kg/day p.o.", "value": "14.19 ± 2.24", "unit": "PFC/spleen × 10^-4"}, {"measurement": "Suppression (%)", "setting": "[4]; 25 mg/kg/day p.o.", "value": 77.2, "unit": "%"}, {"measurement": "Effects PFC/spleen × 10^-4", "setting": "[4]; 100 mg/kg/day p.o.", "value": "5.19 ± 1.29", "unit": "PFC/spleen × 10^-4"}, {"measurement": "Suppression (%)", "setting": "[4]; 100 mg/kg/day p.o.", "value": 93.6, "unit": "%"}, {"measurement": "inhibition in vivo at 50 mg/kg", "setting": "[3]; 50 mg/kg i.p., day 1, 3, 5, 7 and 9, tumor weight day 10, read-out: Inhibition Ratio (%) Sarcoma 180 (solid)", "value": 53.9, "unit": "%"}, {"measurement": "inhibition in vivo at 100 mg/kg", "setting": "[3]; [7]", "value": 71.4, "unit": "%"}, {"measurement": "inhibition in vivo at 200 mg/kg", "setting": "[3]; 200 mg/kg i.p., day 1, 3, 5, 7 and 9, tumor weight day 10, read-out: Inhibition Ratio (%) Sarcoma 180 (solid)", "value": 88.8, "unit": "%"}, {"measurement": "inhibition in vivo at 206 mg/kg", "setting": "[3]; 206 mg/kg i.p., day 1, 3, 5, 7 and 9, tumor weight day 10, read-out: Inhibition Ratio (%) Sarcoma 180 (solid)", "value": 100, "unit": "%"}, {"measurement": "Evaluation T/C (%) P388 (median survival time)", "setting": "[5]; 100 mg/kg i.p.", "value": 112, "unit": "%"}, {"measurement": "Evaluation T/C (%) P388 (median survival time)", "setting": "[5]; 200 mg/kg i.p.", "value": 120, "unit": "%"}, {"measurement": "Evaluation T/C (%) P388 (median survival time)", "setting": "[5]; 400 mg/kg i.p.", "value": 138, "unit": "%"}]}
{"smiles": "NC(=O)c1[nH]cnc1OC(=O)c1ccc2c(c1)OCO2", "note": "[5-carbamoyl-1H-imidazol-4-yl 3,4-methylenedioxybenzoate]", "values": [{"measurement": "inhibition in vivo at 100 mg/kg", "setting": "[3]; [7]", "value": 65.1, "unit": "%"}]}
{"smiles": "NC(=O)c1[nH]cnc1OC(=O)c1ccc(Br)cc1", "note": "[5-carbamoyl-1H-imidazol-4-yl p-bromobenzoate]", "values": [{"measurement": "inhibition in vivo at 100 mg/kg", "setting": "[3]; [7]", "value": 66, "unit": "%"}]}
{"smiles": "NC(=O)c1[nH]cnc1OC(=O)c1ccc(Cl)cc1", "note": "[5-carbamoyl-1H-imidazol-4-yl p-chlorobenzoate]", "values": [{"measurement": "Effects PFC/spleen × 10^-4", "setting": "[4]; 25 mg/kg/day p.o.", "value": "22.06 ± 5.37", "unit": "PFC/spleen × 10^-4"}, {"measurement": "Suppression (%)", "setting": "[4]; 25 mg/kg/day p.o.", "value": 64.6, "unit": "%"}, {"measurement": "inhibition in vivo at 100 mg/kg", "setting": "[3]; [7]", "value": 49.1, "unit": "%"}]}
{"smiles": "Sc1ncnc2nc[nH]c12", "note": "[6-Mercaptopurine, 6-mercaptopurine, reference compound]", "values": [{"measurement": "Effects PFC/spleen × 10^-4", "setting": "[4]; 25 mg/kg/day p.o.", "value": "30.78 ± 6.28", "unit": "PFC/spleen × 10^-4"}, {"measurement": "Suppression (%)", "setting": "[4]; 25 mg/kg/day p.o.", "value": 60.2, "unit": "%"}]}
{"smiles": "Cn1cnc([N+](=O)[O-])c1Sc1ncnc2nc[nH]c12", "note": "[Azathioprine, 6-(1-methyl-4-nitro-5-imidazolyl)mercaptopurine, reference compound]", "values": [{"measurement": "Effects PFC/spleen × 10^-4", "setting": "[4]; 100 mg/kg/day p.o.", "value": 26.73, "unit": "PFC/spleen × 10^-4"}, {"measurement": "Suppression (%)", "setting": "[4]; 100 mg/kg/day p.o.", "value": 81.6, "unit": "%"}]}
{"smiles": "CO[C@@]12[C@H](COC(N)=O)C3=C(C(=O)C(C)=C(N)C3=O)N1C[C@@H]1N[C@@H]12", "note": "[Mitomycin C, reference compound]", "values": [{"measurement": "inhibition in vivo at 2 mg/kg", "setting": "[3]; [8]", "value": 74, "unit": "%"}]}
{"smiles": "NC(=O)c1ncn([C@@H]2O[C@H](CO)[C@@H](O)[C@H]2O)c1O", "note": "[bredinin, 4-carbamoyl-1-β-D-ribofuranosylimidazolium-5-olate]", "values": [{"measurement": "immunosuppressive activity / effects", "setting": "[1]", "value": "has immunosuppressive activity"}, {"measurement": "antitumor activity against lymphatic leukemia L1210", "setting": "[6]", "value": "weak antitumor activity"}]}
